Structures are written as SMILES.

Holding throughout (assay): biochemical
What all share (assay type): biochemical

The target in test [1] is T1, 382 unique human kinases (Homo sapiens, UniProt P00533, T790M).
T1 construct: purchased Reaction Biology (HotSpot contract assay)
The following applies: kinase EGFR (T790M), compound 10 uM; for remaining activity at 10 µM: read-out: % Enzyme Activity (relative to DMSO controls).

Test [2] has as its target T2, 382 unique human kinases (Homo sapiens, UniProt P31749).
T2 construct: purchased Reaction Biology (HotSpot contract assay)
Particulars: kinase AKT1, compound 10 uM; for remaining activity at 10 µM: read-out: % Enzyme Activity (relative to DMSO controls).

In test [3] the target is T3, 382 unique human kinases (Homo sapiens, UniProt Q9UHD2).
T3 construct: purchased Reaction Biology (HotSpot contract assay)
T3 sequence (Q9UHD2 1-729): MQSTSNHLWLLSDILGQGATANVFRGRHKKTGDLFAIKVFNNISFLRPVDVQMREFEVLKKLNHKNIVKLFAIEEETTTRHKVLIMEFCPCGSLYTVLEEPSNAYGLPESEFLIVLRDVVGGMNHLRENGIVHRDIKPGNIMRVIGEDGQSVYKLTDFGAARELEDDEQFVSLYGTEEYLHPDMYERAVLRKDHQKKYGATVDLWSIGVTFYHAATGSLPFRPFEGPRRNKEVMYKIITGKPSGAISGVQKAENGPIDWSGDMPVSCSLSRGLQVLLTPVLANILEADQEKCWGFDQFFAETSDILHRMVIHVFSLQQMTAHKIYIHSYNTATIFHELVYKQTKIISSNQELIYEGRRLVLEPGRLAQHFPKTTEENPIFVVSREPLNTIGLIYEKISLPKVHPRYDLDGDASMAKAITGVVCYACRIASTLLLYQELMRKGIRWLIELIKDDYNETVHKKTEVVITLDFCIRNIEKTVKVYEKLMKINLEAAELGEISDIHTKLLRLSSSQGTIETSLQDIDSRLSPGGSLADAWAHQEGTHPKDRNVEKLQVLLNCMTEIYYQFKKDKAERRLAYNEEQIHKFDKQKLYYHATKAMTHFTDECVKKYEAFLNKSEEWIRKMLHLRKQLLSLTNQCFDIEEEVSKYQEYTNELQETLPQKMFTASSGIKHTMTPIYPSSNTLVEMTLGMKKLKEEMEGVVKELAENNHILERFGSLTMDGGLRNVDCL
The following applies: kinase TBK1, compound 10 uM; for remaining activity at 10 µM: read-out: % Enzyme Activity (relative to DMSO controls).

The target of test [4] is T4, 382 unique human kinases (Homo sapiens, UniProt Q04771, Q207D).
T4 construct: purchased Reaction Biology (HotSpot contract assay)
T4 sequence (Q04771 21-509 Q207D): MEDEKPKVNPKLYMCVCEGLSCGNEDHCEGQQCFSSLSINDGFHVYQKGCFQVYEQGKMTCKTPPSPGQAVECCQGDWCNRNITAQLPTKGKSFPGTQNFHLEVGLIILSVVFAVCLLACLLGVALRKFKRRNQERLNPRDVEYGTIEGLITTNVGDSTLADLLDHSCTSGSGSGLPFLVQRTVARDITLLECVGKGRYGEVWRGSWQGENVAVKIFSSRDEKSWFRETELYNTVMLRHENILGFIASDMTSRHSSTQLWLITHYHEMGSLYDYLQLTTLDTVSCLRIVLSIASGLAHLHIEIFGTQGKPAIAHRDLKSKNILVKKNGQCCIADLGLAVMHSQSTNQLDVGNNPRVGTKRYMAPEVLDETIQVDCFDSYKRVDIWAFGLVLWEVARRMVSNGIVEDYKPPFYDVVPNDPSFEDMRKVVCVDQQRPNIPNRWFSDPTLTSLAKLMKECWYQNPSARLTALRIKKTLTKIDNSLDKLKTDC
Particulars: ALK2 (Q207D), compound at 10 uM, duplicate values; for remaining activity at 10 µM: read-out: % Enzyme Activity (relative to DMSO controls).

The target in test [5] is T5, 382 unique human kinases (Homo sapiens, UniProt P20794).
T5 construct: purchased Reaction Biology (HotSpot contract assay)
T5 sequence (P20794 1-623): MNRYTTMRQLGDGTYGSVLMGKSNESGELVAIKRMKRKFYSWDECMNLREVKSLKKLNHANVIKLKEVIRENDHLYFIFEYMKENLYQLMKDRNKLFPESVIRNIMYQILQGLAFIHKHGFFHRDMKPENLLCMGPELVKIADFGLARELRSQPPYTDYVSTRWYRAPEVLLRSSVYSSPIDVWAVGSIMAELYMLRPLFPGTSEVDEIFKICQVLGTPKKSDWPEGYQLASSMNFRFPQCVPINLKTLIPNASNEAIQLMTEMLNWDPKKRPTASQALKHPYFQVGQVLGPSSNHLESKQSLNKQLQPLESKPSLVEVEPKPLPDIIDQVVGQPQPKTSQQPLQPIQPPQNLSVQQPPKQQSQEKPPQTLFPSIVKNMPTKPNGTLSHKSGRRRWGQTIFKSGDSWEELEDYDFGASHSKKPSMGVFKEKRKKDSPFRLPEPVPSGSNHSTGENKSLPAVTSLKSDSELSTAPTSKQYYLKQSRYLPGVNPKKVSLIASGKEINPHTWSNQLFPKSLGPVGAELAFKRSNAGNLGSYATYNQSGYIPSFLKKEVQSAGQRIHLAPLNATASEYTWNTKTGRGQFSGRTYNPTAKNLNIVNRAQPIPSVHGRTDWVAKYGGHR
The following applies: kinase MAK, compound 10 uM; for remaining activity at 10 µM: read-out: % Enzyme Activity (relative to DMSO controls).

The target of test [6] is T6, 382 unique human kinases (Homo sapiens, UniProt Q14289).
T6 construct: purchased Reaction Biology (HotSpot contract assay)
The following applies: PYK2, 10 uM; for remaining activity at 10 µM: read-out: % Enzyme Activity (relative to DMSO controls).

Test [7] concerns the target T7, 382 unique human kinases (Homo sapiens, UniProt P08922).
T7 construct: purchased Reaction Biology (HotSpot contract assay)
The following applies: ROS/ROS1, 10 uM; for remaining activity at 10 µM: read-out: % Enzyme Activity (relative to DMSO controls).

The target in test [8] is T8, 382 unique human kinases (Homo sapiens, UniProt P00533).
T8 construct: purchased Reaction Biology (HotSpot contract assay)
Particulars: EGFR, 10 uM; for remaining activity at 10 µM: read-out: % Enzyme Activity (relative to DMSO controls).

Test [9] addresses T9, 382 unique human kinases (Homo sapiens, UniProt P78527).
T9 construct: purchased Reaction Biology (HotSpot contract assay)
Particulars: DNA-PK, 10 uM; for remaining activity at 10 µM: read-out: % Enzyme Activity (relative to DMSO controls).

For test [10], the target named is T10, 382 unique human kinases (Homo sapiens, UniProt Q8N752).
T10 construct: purchased Reaction Biology (HotSpot contract assay)
T10 sequence (Q8N752 1-337): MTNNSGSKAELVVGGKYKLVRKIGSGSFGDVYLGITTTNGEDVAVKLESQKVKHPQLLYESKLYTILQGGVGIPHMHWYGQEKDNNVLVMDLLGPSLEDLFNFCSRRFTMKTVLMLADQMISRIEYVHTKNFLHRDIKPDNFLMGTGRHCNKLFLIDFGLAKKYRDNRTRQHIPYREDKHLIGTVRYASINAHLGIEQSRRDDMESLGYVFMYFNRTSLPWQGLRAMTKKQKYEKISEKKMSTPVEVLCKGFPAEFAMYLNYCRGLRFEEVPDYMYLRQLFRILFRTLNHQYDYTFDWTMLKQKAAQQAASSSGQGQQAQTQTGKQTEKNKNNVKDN
Particulars: CK1a1L, 10 uM; for remaining activity at 10 µM: read-out: % Enzyme Activity (relative to DMSO controls).

The target of test [11] is T11, 382 unique human kinases (Homo sapiens, UniProt P00519, E255V).
T11 construct: purchased Reaction Biology (HotSpot contract assay)
Particulars: ABL1 (E255V), [ATP] 10 µM, compound 10 uM; for remaining activity at 10 µM: read-out: % Enzyme Activity (relative to DMSO controls).

T9 sequence (P78527 whole entry): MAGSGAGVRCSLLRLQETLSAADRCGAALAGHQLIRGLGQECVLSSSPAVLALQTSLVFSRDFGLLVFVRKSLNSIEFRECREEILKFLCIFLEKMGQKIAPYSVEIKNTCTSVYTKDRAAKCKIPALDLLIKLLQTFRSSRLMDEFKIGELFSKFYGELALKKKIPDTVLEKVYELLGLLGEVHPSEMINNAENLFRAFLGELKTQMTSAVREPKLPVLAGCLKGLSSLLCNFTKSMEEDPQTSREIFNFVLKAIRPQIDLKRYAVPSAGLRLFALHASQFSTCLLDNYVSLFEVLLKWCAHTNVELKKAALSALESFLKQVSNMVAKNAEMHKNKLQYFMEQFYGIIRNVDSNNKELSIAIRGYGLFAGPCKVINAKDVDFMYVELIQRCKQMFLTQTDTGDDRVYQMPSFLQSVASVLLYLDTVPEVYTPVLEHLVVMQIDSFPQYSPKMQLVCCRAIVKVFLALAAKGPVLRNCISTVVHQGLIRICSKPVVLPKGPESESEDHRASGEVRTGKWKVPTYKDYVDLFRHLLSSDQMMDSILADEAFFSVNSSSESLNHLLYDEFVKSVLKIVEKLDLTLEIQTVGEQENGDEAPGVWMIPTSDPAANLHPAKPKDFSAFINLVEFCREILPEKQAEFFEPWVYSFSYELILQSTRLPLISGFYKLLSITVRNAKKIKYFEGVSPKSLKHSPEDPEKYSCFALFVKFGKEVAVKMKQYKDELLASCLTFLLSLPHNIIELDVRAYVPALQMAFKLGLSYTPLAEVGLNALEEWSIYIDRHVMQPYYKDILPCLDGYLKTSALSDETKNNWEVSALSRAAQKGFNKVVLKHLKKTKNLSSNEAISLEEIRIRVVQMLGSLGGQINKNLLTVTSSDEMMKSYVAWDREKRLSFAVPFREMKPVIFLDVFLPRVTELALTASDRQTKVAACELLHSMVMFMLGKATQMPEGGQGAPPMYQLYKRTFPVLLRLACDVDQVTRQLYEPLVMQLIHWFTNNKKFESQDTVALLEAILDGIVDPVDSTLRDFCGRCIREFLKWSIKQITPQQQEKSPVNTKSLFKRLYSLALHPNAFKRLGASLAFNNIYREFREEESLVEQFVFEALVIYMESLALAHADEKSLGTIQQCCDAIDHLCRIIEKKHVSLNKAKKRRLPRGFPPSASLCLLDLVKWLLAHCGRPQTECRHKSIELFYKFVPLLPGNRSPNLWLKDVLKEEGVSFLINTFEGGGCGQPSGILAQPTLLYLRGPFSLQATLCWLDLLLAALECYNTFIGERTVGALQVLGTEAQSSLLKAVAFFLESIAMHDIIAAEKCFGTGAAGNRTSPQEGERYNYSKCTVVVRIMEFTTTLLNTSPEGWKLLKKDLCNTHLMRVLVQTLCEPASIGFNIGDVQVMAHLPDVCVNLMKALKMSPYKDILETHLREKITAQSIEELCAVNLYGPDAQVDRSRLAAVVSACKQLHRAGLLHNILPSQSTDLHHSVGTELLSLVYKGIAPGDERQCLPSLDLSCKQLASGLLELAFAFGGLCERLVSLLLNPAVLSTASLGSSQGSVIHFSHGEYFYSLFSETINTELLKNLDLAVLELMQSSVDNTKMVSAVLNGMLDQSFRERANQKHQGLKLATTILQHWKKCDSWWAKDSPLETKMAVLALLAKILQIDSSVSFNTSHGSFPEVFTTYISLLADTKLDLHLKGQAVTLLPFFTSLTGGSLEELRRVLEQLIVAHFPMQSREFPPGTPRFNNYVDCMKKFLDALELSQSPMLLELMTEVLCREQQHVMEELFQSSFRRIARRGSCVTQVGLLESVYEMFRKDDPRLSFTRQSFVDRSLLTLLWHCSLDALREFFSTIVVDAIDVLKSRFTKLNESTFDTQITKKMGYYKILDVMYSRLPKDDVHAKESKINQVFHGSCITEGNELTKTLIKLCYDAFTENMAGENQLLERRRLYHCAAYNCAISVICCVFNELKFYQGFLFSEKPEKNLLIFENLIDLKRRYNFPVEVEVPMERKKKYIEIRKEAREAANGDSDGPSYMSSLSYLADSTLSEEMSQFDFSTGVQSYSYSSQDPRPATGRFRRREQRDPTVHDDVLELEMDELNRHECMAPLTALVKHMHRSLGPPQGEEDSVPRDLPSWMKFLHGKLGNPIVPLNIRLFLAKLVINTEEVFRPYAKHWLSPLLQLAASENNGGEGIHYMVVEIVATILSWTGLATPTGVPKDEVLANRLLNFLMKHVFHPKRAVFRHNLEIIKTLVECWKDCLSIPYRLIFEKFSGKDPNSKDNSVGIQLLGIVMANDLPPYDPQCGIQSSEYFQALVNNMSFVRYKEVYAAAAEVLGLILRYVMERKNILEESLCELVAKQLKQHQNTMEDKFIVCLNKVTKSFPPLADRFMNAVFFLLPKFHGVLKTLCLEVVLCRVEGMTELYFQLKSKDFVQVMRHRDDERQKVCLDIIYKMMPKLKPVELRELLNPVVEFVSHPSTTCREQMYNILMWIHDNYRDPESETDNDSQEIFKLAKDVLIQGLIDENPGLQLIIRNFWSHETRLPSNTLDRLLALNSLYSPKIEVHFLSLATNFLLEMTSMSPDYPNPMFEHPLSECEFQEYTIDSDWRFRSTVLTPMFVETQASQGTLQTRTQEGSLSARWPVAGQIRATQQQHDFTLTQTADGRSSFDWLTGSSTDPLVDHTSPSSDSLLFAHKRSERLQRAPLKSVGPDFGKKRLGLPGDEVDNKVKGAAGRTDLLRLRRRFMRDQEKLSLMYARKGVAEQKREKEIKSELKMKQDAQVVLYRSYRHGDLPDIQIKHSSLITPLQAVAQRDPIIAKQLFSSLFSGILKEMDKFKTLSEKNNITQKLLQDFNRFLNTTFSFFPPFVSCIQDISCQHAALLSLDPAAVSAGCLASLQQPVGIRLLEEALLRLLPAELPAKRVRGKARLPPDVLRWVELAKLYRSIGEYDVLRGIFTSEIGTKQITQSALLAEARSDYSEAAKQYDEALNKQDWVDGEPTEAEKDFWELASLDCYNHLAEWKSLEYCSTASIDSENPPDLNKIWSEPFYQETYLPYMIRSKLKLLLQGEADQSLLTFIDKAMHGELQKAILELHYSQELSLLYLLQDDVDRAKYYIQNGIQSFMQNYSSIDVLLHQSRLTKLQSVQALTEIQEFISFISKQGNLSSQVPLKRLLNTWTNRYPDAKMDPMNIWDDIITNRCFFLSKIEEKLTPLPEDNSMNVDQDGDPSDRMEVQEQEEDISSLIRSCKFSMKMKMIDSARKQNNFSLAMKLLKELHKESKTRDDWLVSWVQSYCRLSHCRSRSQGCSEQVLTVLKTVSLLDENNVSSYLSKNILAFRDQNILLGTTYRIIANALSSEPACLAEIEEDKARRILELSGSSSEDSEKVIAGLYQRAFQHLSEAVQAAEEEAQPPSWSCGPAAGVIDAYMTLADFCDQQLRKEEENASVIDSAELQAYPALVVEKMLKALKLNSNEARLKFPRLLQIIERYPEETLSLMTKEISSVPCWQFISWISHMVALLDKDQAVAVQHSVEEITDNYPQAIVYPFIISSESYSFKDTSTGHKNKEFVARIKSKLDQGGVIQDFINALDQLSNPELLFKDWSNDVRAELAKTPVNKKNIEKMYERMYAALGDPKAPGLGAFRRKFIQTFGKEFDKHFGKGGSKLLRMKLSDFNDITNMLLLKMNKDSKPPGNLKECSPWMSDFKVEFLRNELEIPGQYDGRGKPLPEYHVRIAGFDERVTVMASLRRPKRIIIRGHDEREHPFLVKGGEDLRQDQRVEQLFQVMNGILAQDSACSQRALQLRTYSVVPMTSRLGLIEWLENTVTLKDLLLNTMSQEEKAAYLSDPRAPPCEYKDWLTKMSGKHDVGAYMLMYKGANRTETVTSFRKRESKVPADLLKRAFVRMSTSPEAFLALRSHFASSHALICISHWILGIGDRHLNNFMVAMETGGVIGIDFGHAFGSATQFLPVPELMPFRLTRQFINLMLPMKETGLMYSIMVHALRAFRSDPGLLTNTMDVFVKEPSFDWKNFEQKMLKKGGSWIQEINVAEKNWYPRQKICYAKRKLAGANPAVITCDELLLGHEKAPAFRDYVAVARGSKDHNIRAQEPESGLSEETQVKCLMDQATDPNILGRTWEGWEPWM
T6 sequence (Q14289 whole entry): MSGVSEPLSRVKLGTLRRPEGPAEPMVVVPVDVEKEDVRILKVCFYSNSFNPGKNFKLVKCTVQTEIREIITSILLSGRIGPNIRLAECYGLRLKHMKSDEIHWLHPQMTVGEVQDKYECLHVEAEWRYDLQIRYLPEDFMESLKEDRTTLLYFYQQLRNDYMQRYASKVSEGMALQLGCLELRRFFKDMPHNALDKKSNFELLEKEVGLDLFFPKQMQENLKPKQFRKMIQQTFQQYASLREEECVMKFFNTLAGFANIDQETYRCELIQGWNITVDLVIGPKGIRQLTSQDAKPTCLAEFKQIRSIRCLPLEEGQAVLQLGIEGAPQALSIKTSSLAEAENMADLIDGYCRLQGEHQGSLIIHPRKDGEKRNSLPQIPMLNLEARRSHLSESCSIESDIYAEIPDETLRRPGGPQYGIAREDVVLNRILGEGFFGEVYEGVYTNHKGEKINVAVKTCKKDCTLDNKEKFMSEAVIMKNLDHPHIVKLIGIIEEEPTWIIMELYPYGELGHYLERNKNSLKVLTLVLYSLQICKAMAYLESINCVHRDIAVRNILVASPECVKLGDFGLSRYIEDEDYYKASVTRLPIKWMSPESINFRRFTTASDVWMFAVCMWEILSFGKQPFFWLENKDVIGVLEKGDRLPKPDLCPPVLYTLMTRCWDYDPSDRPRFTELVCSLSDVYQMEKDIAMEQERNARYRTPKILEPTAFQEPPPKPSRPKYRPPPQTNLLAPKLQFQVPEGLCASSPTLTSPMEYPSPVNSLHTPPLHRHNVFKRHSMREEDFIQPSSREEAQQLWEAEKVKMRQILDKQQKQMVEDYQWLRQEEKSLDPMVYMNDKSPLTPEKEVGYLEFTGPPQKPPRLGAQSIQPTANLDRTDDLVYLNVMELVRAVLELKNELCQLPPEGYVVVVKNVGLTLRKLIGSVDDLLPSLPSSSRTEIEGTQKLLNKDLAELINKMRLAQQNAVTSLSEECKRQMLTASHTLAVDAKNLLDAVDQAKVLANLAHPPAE

Regarding `CC(C)c1cc(-c2n[nH]c(=O)n2-c2ccc3c(ccn3C)c2)c(O)cc1O` [Ganetespib (STA9090)], the remaining activity at 10 µM stood at 85.7% on 382 unique human kinases [1]; 84.4% at 382 unique human kinases [2]; 89.4% on 382 unique human kinases [3]; 154% on 382 unique human kinases [4]; 86.4% on 382 unique human kinases [5]; 78.5% on 382 unique human kinases [6]. Also, the remaining activity at 10 µM is 70.2% on 382 unique human kinases [7] and 76% on 382 unique human kinases [8].

Turning to `CC(C)c1cc(-c2n[nH]c(=O)n2-c2ccc3c(ccn3C)c2)c(O)cc1O` [Ganetespib], the remaining activity at 10 µM on 382 unique human kinases [9] turned out to be 97.8%; at 382 unique human kinases [10], 98.3%; at 382 unique human kinases [11] it was 9.72%.

Turning to `CCNC(=O)c1noc(-c2cc(C(C)C)c(O)cc2O)c1-c1ccc(CN2CCOCC2)cc1` [Luminespib (AUY-922)], the “% Enzyme Activity (relative to DMSO controls)” value came out at 95.04% at 382 unique human kinases [1]; 97.59% at 382 unique human kinases [2]; 105.06% on 382 unique human kinases [3]; 101.59% at 382 unique human kinases [4]; 94.57% on 382 unique human kinases [5]; 97.56% on 382 unique human kinases [6]. Besides, the “% Enzyme Activity (relative to DMSO controls)” value on 382 unique human kinases [7] came to 89.10%; at 382 unique human kinases [8], 93.47%. Further, the remaining activity at 10 µM was 95.4% on 382 unique human kinases [1]; 98.4% at 382 unique human kinases [2]; 107% at 382 unique human kinases [3]; 106% at 382 unique human kinases [4]; 94.7% at 382 unique human kinases [5]; 98.8% at 382 unique human kinases [6]. Besides, the remaining activity at 10 µM amounted to 90.8% on 382 unique human kinases [7] and 95.1% at 382 unique human kinases [8].

`CCNC(=O)c1noc(-c2cc(C(C)C)c(O)cc2O)c1-c1ccc(CN2CCOCC2)cc1` [Luminespib]: the entries for the “% Enzyme Activity (relative to DMSO controls)” value at 382 unique human kinases [9], at 382 unique human kinases [10] and at 382 unique human kinases [11] were 91.21%, 99.86% and 9.69%, respectively. For the same molecule, the remaining activity at 10 µM on 382 unique human kinases [9] amounted to 91.6%; on 382 unique human kinases [10], 100%; on 382 unique human kinases [11] it was 9.81%.

Source of the values: article PMC8550792, “Evolution of kinase polypharmacology across HSP90 drug discovery” (Cell Chemical Biology, 2021).
